Assay results reported in patent publication US20140350064A1, “PHARMACEUTICAL COMPOSITION COMPRISING AN AMPK ACTIVATOR AND A SEROTONERGIC AGENT AND METHODS OF USE THEREOF” (priority 2013, published 2014).

Legend:
Format in all cases: in vivo, Sprague-Dawley rat
[1] = Weight gain inhibition in Sprague-Dawley rats, 65 days' treatment
Method: (§1) Male Sprague-Dawley rats were used with average body weight 223 g. The rats were fed with standard chow.
(§2) Before grouping, all animals were weighed at fasting state for 5 consecutive days. The first dose of the drug as indicated in Table 1 was administered on the next day after grouping; the dose was administered by gavage (t.i.d.) in a solution dose of […] body weight, and continued for a total of 65 days. Initially, each rat was treated accordingly with 0.25 mL drug solution; the dosage was then adjusted according to the body weight change of each rat, by increasing the dose by 0.05 mL for each 50 g body weight increment.
(§3) Groups were fed overnight with 30 g chowrat after drug administration and food deprived during daytime. Overnight food intake was measured every morning, while fasting body weight was measured every Tuesday and Friday night.
(§4) Statistical analysis was performed with SPSS software (IBM). One-way ANOVA was performed.

[2] = Overnight food intake in Sprague-Dawley rats during dosing; conditions: daily overnight food intake, 65 days of treatment, n=10
Method: as §1, §2, §3, §4

[3] = Fat mass of Sprague-Dawley rats after 65 days' treatment; conditions: for Fat Mass: average total fat mass after 65 days, n=10
Method: as §1, §2, §4

[4] = after 65 consecutive days of treatment

CC(C)CC(N(C)C)C1(c2ccc(Cl)cc2)CCC1 (centres unmarked) [SIB, sibutramine]
Effect on body weight gain [1, 4]: decreased body weight gain
Post-Dose body weight ([1]; male Sprague-Dawley rats, gavage t.i.d., 65 days, fasting body weight, n=10): 493.8 ± 13.0 g
ΔBW (increase of body weight) ([1]; male Sprague-Dawley rats, gavage t.i.d., 65 days, n=10): 270.7 ± 11.6 g
ΔBW (increase of body weight) ([1]; male Sprague-Dawley rats, gavage t.i.d., 65 days, n=10, listed as sibutramine): 270.7 g
Relative Body Weight ([1]; vs. GS control group, 65 days, n=10): -22.0 g
Weight Loss Ratio ([1]; vs. GS control group, 65 days, n=10, listed as sibutramine): 4.3%
Average Food Intake During Dosing [2]: 29.4 ± 0.9 g
Average Food Intake During Dosing ([2]; listed as sibutramine): 29.4 g
Effect on fat mass [3, 4]: reduced fat mass
Fat Mass [3]: 25.5 ± 6.3 g
Fat Mass ([3]; listed as sibutramine): 25.5 g
